# Assay results taken from patent US10251831B2, “Extract for treating wrinkles and/or fine lines” (Avon Products, Inc., priority 2009, dated 2019).
# Tests used:
# paxillin mRNA = test: Stimulation of paxillin mRNA in vitro (QuantiGene multiplex branched DNA assay); format: cell-based; conditions: normal human dermal fibroblasts, 24 hours treatment, normalized to GAPDH
# Experimental: Normal human dermal fibroblasts (Cascade Biologics) were cultured in 96-well tissue culture treated plates, with 200 μl DMEM in 10% serum per well, and incubated for 24 hours at 37° C. and 10% CO2. In some cases, normal human epidermal keratinocytes (Cascade Biologics) were cultured in 200 μl EpiLife medium (Cascade Biologics) per well, and incubated overnight at 37° C. and 5% CO2.
# Stock solutions of candidate paxillin stimulators (test materials) were made in appropriate solvents (e.g., DMSO, water, ethanol, a 50:50 ethanol:water mixture) to give weight % as indicated in Table 1 below. Cells were treated with test material or a respective vehicle control diluted in growth medium for 24 hours in a humidified 37° C. incubator with 10% CO2. After incubation, growth medium from each plate was removed and 100 μl of lysis buffer was added to the wells and placed in 37° C. incubator with 5% CO2 for 30 minutes. At the end of incubation, the cells were collected in freezer plates and placed in a −80° C. freezer until analysis.
# Changes in mRNA for paxillin in cell lysates after treatment were analysed using QuantiGene® multiplex assay (Panomics Inc. CA) that employs a branched DNA technology. This technology is a hybridization-based method of target-specific RNA quantification that amplifies a signal(s) rather than target RNA, using labelled DNA probe. Probes for Paxillin gene (ID: NM_005953) were designed and synthesized. Paxillin probes, reference probes PPIB and GAPDH, along with a set of other probes were used in this multiplex assay.
# The probes used include capture extenders (CE), label extenders (LE), and blockers (BL). As described above, this arrangement provides a target sequence that is double-stranded, thereby improving hybridization efficiency. The CE, LE, and BL sequences used for identifying paxillin mRNA corresponded to SEQ ID NOS: 1, 2, and 3, respectively.
# Appropriately diluted cell lysates were hybridized with the paxillin and reference probes in a hybridization plate in a Vortemp shaking incubator, for 18-22 hours at 54° C.±1° C. and 600 rpm. Once the paxillin and the reference mRNAs were captured, the unbound material was filtered using filter plates and washed three times with a wash buffer. Signal amplification was performed using two steps—first a 2.0 Pre-amplifier (Panomics Inc.) was added and incubated for 1 hour in the Vortemp shaking incubator at 54° C.±1° C. and 600 rpm. Unbound Pre-amplifier was filtered using a Filter plate and washed twice. Next the samples were exposed to 2.0 Amplifier (Panomics Inc.) and incubated, filtered, and washed as with the Pre-amplifier. Next the samples were hybridized with biotinylated labelled probe, and incubated for one hour at 54° C.±1° C. and 600 rpm. Samples were then filtered and washed as above. Finally, Streptavidin-conjugated Phycoerythrin (SAPE) working reagent was added and the mixture shaken for 30 minutes at room temperature covered in aluminium foil. Unbound SAPE was filtered and washed twice. SAPE wash buffer was added to each well with shaking for 2-5 minutes, and then readings were taken immediately using a Luminex machine.
# Values for amounts of paxillin mRNA were determined along with those for the reference genes PPIB and GAPDH. Values were normalized to GAPDH to determine changes in paxillin mRNA after treatment. Percent increase in mRNA for paxillin was calculated in each case by comparing values after treatment with a candidate paxillin stimulator to values after treatment with the vehicle control.
# Paxillin protein = test: Stimulation of paxillin protein in human skin biopsy (topical patch, immunohistochemistry); format: in vivo
# Description: Compositions comprising a paxillin stimulator were each tested on 21 subject volunteers. For each paxillin stimulator, the composition was topically applied via a patch attached to the back of a randomly selected forearm of each of 21 volunteers, and a vehicle control was similarly applied to the back of the volunteer's forearm. After 3 weeks, the human skin biopsies were taken from the treated skin of the various volunteers and subjected to immunohistochemisty preparation. […] Elevated protein level was determined for each treated subject by comparing to the vehicle control.
smiles,measurement,setting,value
Cc1ccc(C(C)C)cc1O [Carvacrol],% increase in Paxillin (relative to control),paxillin mRNA; Weight % 0.0001%,39.50%
O=C(c1ccccc1)N1C[C@@H]2C[C@H](C1)c1ccc(-c3ccco3)c(=O)n1C2 [Compound of Formula V],% increase in Paxillin (relative to control),paxillin mRNA; Weight % 0.00005%,28.52%
"Oc1ccc(C2COc3cc(O)ccc3C2)cc1 (stereo not drawn) [Equol, 4′,7-isoflavandiol]",% increase in Paxillin (relative to control),paxillin mRNA; Weight % 0.0001%,61.46%
same,% increase in Paxillin (relative to control),paxillin mRNA; Weight % 0.001%,220.36%
CCCCCCCC/C=C\CCCCCCCC(=O)OC/C=C(C)/C=C/C=C(C)/C=C/C1=C(C)CCCC1(C)C [Retinyl oleate],% increase in Paxillin (relative to control),paxillin mRNA; Weight % 0.01%,60.21%
CCCCC=CC=CC=CCCCCCCCC(=O)OCC=C(C)C=CC=C(C)C=CC1=C(C)CCCC1(C)C [Retinyl punicate],% increase in Paxillin (relative to control),paxillin mRNA; Weight % 0.01%,69.68%
"Cc1coc2c1C(=O)C(=O)c1c-2ccc2c1CCCC2(C)C [Tanshinone IIA, 1,6,6-trimethyl-8,9-dihydro-7H-naphtho[1,2-g][1]benzofuran-10,11-dione]",% increase in Paxillin (relative to control),paxillin mRNA; Weight % 0.025%,188.31%
"COc1ccc2cc1Oc1ccc(cc1)C[C@H]1c3cc(c(OC)cc3CCN1C)Oc1c(OC)c(OC)cc3c1[C@H](C2)N(C)CC3 [Tetrandine, 6,6′,7,12-Tetramethoxy-2,2′-dimethyl-berbaman]",% increase in Paxillin (relative to control),paxillin mRNA; Weight % 0.001%,84.31%
"CC/C=C\CCCCCO [cis-6-Nonenol, Cis-6-Nonenol]",% Subjects Improved,"Paxillin protein; percentage of subjects with elevated paxillin protein level vs vehicle control, topical patch on forearm, 3 weeks",71.4%
same,"paxillin protein in human skin biopsies (antibody stain, FIG. 1)","Paxillin protein; representative photographs, compared to treatment with a control",increased paxillin protein
same,No. Showing Improvement,"Paxillin protein; subjects with elevated paxillin protein level vs vehicle control, topical patch on forearm, 3 weeks, 21 subjects",15
same,% increase in Paxillin (relative to control),paxillin mRNA; Weight % 0.001%,60.84%
